Assay [1] relates to COLO 205 colorectal tumor cells. Put plainly: Tumor cell viability inhibition assay (CellTiter-Glo 2.0, 72 hours). Type of assay: cell-based. The settings on record: COLO 205 cell viability. The method, then: The effect of compound treatment on COLO 205 tumor cell viability was assessed using cellular ATP quantification methods (Promega CellTiter-Glo® 2.0, G9241), as follows. Test compounds were prepared using 11-point, 4-fold serial dilutions in DMSO and 100 nL of diluted compounds were transferred to 384-well assay-ready plates. COLO 205 (ATCC, CCL-222) colorectal tumor cells were seeded to assay-ready plates in RPMI-1640 medium supplemented with 10% FBS at 1500 cells in a volume of 33.5 microliters per well. After 72 hours of compound treatment, cellular ATP was assessed by CellTiter-Glo® 2.0 Cell Viability Assay method, according to the manufacturer's instructions. Luminescence was measured using a Clariostar Plus microplate reader (BMG Labtech) or equivalent. After normalization to the average of DMSO control and maximum inhibition control wells, concentration-response data were plotted and standard 4-parameter curve fitting (PEI Signals) was utilized to determine IC50

The target of assay [2] is T1, human eIF4E protein (Homo sapiens, UniProt P06730).
T1 construct: purchased Novus NBP-45314
The assay can be described thus: Biochemical competitive binding assay (TR-FRET competition, EDA-m7GDP-ATTO-647N probe). The settings on record: read-out: hEIF4E TR-FRET IC50. The method, then: The potencies of compounds binding to human eIF4E protein were measured using a 384-well time-resolved fluorescence resonance energy transfer (TR-FRET) competition assay. The assay was performed in assay buffer containing 50 mM HTEPES pH 7.5, 100 mM KCl, 0.02% Tween-20, and 0.1 mg/mL bovine serum albumin (BSA). The reaction volume was 10 μL and each reaction contained 4 nM recombinant 6×HIS-tagged human EIF4E protein (Novus, NBP-45314), 5 nM EDA-m7GDP-ATTO-647N (Jena Bioscience, NU-827-647N), 2.5 nM Europium conjugated Anti-6×HIS antibody (PerkinElmer, AD0402) and varying concentrations of compound. The final DMSO concentration was […].
Compounds were prepared using 11-point, 4-fold serial dilutions in DMSO and 100 nL of diluted compounds were transferred to 384-well assay-ready plates. Recombinant human EIF4E protein at 2× final concentration (8 nM) was pre-incubated with Eu-anti-6×HIS antibody at 2× final concentration (5 nM) for 5 minutes, then 5 μL of the protein solution was added to assay-ready plates. The protein/compound mix was incubated for 15 minutes, after which 5 μL of a solution containing EDA-m7GDP-ATTO-647N probe at 2× final concentration (10 nM) was added. After a subsequent 15-minute incubation, time-resolved fluorescence of assay plates was measured using a Clariostar Plus microplate reader (BMG Labtech) and TR-FRET values were calculated by taking a ratio of the 665 to 620 wavelength signals. After normalization to the average of DMSO control and maximum inhibition control wells, concentration-response data were plotted and standard 4-parameter curve fitting (PEI Signals) was utilized to determine IC50 values.
In general terms: In TR-FRET formats the signal depends on donor and acceptor labels being close together.

Structures are written as SMILES.

T1 sequence (P06730 whole entry): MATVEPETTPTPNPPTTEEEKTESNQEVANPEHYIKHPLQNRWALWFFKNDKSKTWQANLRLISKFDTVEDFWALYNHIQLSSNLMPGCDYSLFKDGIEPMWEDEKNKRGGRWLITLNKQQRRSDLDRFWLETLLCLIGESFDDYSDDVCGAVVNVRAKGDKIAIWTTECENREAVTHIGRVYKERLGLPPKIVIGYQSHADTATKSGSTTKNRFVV

Broadly, the IC50 is the midpoint of a concentration-inhibition curve. Regarding `Cc1cc(-c2cc(Cl)ccc2OCCn2c(C)nc3c(c2=O)C[C@@H](N2C[C@@H]4CC(F)(F)C[C@@H]4C2)CC3)c2scc(C(=O)NS(C)(=O)=O)c2n1` (relative stereo) [Compound 369], the IC50 in assay [1] (Homo sapiens, COLO 205, 72 h) is < 5 µM; in assay [2] it was < 0.1 µM.

With `Cc1cc(-c2cc(Cl)ccc2OCCn2c(C)nc3c(c2=O)C[C@@H](N2CCC[C@@H](C(F)F)C2)CC3)c2scc(C(=O)O)c2n1` (single isomer, unassigned) [Compound 100], the IC50 in assay [1] (Homo sapiens, COLO 205, 72 h) is < 5 µM; in assay [2], < 0.1 µM.

With `Cc1cc(-c2cc(Cl)ccc2OCCn2c(C)nc3c(c2=O)C[C@@H](N2CCC[C@H](C(F)F)C2)CC3)c2scc(C(=O)O)c2n1` (single isomer, unassigned) [Compound 101], the IC50 in assay [1] (Homo sapiens, COLO 205, 72 h) is < 5 µM; in assay [2], < 0.1 µM.

For the molecule `Cc1cc(-c2cc(Cl)ccc2OCCn2c(C)nc3c(c2=O)CC(N2CCC(OC(F)(F)F)CC2)CC3)c2scc(C(=O)NS(C)(=O)=O)c2n1` (single isomer, unassigned) [Compound 104], the IC50 in assay [1] (Homo sapiens, COLO 205, 72 h) was < 5 µM; in assay [2], < 0.1 µM.

For `Cc1cc(-c2cc(Cl)ccc2OCCn2c(C)nc3c(c2=O)CC(N2CCC(OC(F)(F)F)CC2)CC3)c2scc(C(=O)NS(C)(=O)=O)c2n1` (single isomer, unassigned) [Compound 105], the results for the IC50 in assay [1] and in assay [2] were < 5 µM and < 0.1 µM, respectively.

As for `Cc1cc(-c2cc(Cl)ccc2OCCn2c(C)nc3c(c2=O)C[C@@H](N2CCC(CC(F)(F)F)CC2)CC3)c2scc(C(=O)O)c2n1` (single isomer, unassigned) [Compound 106], the IC50 in assay [1] (Homo sapiens, COLO 205, 72 h) is < 5 µM; in assay [2], < 0.1 µM.

Consider `Cc1cc(-c2cc(Cl)ccc2OCCn2c(C)nc3c(c2=O)C[C@H](N2CCC(CC(F)(F)F)CC2)CC3)c2scc(C(=O)O)c2n1` (single isomer, unassigned) [Compound 107], for which the IC50 in assay [1] (Homo sapiens, COLO 205, 72 h) was < 5 µM; in assay [2], < 0.1 µM.

With `Cc1cc(-c2cc(Cl)ccc2OCCn2c(C)nc3c(c2=O)C[C@H](N2CCC(n4cc(Cl)cn4)CC2)CC3)c2scc(C(=O)O)c2n1` (single isomer, unassigned) [Compound 108], the IC50 in assay [1] (Homo sapiens, COLO 205, 72 h) was < 5 µM; in assay [2], < 0.1 µM.

For `Cc1cc(-c2cc(Cl)ccc2OCCn2c(C)nc3c(c2=O)C[C@@H](N2CCC(n4cc(Cl)cn4)CC2)CC3)c2scc(C(=O)O)c2n1` (single isomer, unassigned) [Compound 109], the half-inhibitory concentration (IC50) in assay [1] (Homo sapiens, COLO 205, 72 h) was < 5 µM; in assay [2], < 0.1 µM.

As for `Cc1cc(-c2cc(Cl)ccc2OCCn2c(C)nc3c(c2=O)C[C@@H](N2CCC(N4CC(F)(F)C4)CC2)CC3)c2scc(C(=O)O)c2n1` (single isomer, unassigned) [Compound 110], the IC50 was 5 to 20 µM in assay [1] (Homo sapiens, COLO 205, 72 h) and < 0.1 µM in assay [2].

As for `Cc1cc(-c2cc(Cl)ccc2OCCn2c(C)nc3c(c2=O)C[C@H](N2CCC(N4CC(F)(F)C4)CC2)CC3)c2scc(C(=O)O)c2n1` (single isomer, unassigned) [Compound 111], the IC50 was < 5 µM in assay [1] (Homo sapiens, COLO 205, 72 h) and < 0.1 µM in assay [2].

As to `Cc1cc(-c2cc(Cl)ccc2OCCn2c(C)nc3c(c2=O)C[C@@H](N2CC[C@H](C(F)F)C2)CC3)c2scc(C(=O)O)c2n1` (single isomer, unassigned) [Compound 113], the IC50 in assay [1] (Homo sapiens, COLO 205, 72 h) is < 5 µM; in assay [2], < 0.1 µM.

`Cc1cc(-c2cc(Cl)ccc2OCCn2c(C)nc3c(c2=O)C[C@H](N2CCC[C@@H](C(F)F)C2)CC3)c2scc(C(=O)O)c2n1` (single isomer, unassigned) [Compound 116]: the IC50 in assay [1] (Homo sapiens, COLO 205, 72 h) was < 5 µM; in assay [2], < 0.1 µM.

For the molecule `Cc1cc(-c2cc(Cl)ccc2OCCn2c(C)nc3c(c2=O)C[C@H](N2CCC[C@H](C(F)F)C2)CC3)c2scc(C(=O)O)c2n1` (single isomer, unassigned) [Compound 117], the IC50 is < 5 µM in assay [1] (Homo sapiens, COLO 205, 72 h) and < 0.1 µM in assay [2].

`Cc1cc(-c2cc(Cl)ccc2OCCn2c(C)nc3c(c2=O)C[C@@H](N2CC[C@@H](C(F)F)C2)CC3)c2scc(C(=O)O)c2n1` (single isomer, unassigned) [Compound 120]: the IC50 was < 5 µM in assay [1] (Homo sapiens, COLO 205, 72 h) and < 0.1 µM in assay [2].

Turning to `Cc1cc(-c2cc(Cl)ccc2OCCn2c(C)nc3c(c2=O)C[C@H](N2CC[C@@H](C(F)F)C2)CC3)c2scc(C(=O)O)c2n1` (single isomer, unassigned) [Compound 121], the IC50 was < 5 µM in assay [1] (Homo sapiens, COLO 205, 72 h) and < 0.1 µM in assay [2].

As to `Cc1cc(-c2cc(Cl)ccc2OCCn2c(C)nc3c(c2=O)C[C@H](N2CC[C@H](C(F)F)C2)CC3)c2scc(C(=O)O)c2n1` (single isomer, unassigned) [Compound 122], the IC50 in assay [1] (Homo sapiens, COLO 205, 72 h) is < 5 µM; in assay [2], < 0.1 µM.

Regarding `Cc1cc(-c2cc(Cl)ccc2OCCn2c(C)nc3c(c2=O)C[C@@H](N2CC4(CCC(F)(F)CC4)C2)CC3)c2scc(C(=O)O)c2n1` (single isomer, unassigned) [Compound 128], the IC50 in assay [1] (Homo sapiens, COLO 205, 72 h) was < 5 µM; in assay [2], < 0.1 µM.

On to `Cc1cc(-c2cc(Cl)ccc2OCCn2c(C)nc3c(c2=O)C[C@H](N2CC4(CCC(F)(F)CC4)C2)CC3)c2scc(C(=O)O)c2n1` (single isomer, unassigned) [Compound 131], for which the IC50 in assay [1] (Homo sapiens, COLO 205, 72 h) was < 5 µM; in assay [2], < 0.1 µM.

Regarding `Cc1cc(-c2cc(Cl)ccc2OCCn2c(C)nc3c(c2=O)CC(N2CCC(OC(F)(F)F)CC2)CC3)c2scc(C(=O)O)c2n1` (single isomer, unassigned) [Compound 135], the IC50 is < 5 µM in assay [1] (Homo sapiens, COLO 205, 72 h) and < 0.1 µM in assay [2].

As for `Cc1cc(-c2cc(Cl)ccc2OCCn2c(C)nc3c(c2=O)C[C@H](N2CCC[C@]4(C2)CC4(F)F)CC3)c2scc(C(=O)O)c2n1` (single isomer, unassigned) [Compound 137], the IC50 in assay [1] (Homo sapiens, COLO 205, 72 h) is < 5 µM; in assay [2] it was < 0.1 µM.

`Cc1cc(-c2cc(Cl)ccc2OCCn2c(C)nc3c(c2=O)C[C@@H](N(C)[C@H]2CC[C@@](C)(O)C2)CC3)c2scc(C(=O)O)c2n1` (single isomer, unassigned) [Compound 184]: the IC50 was > 20 µM in assay [1] (Homo sapiens, COLO 205, 72 h) and < 0.1 µM in assay [2].

With `Cc1cc(-c2cc(Cl)ccc2OCCn2c(C)nc3c(c2=O)C[C@@H](N(C)C[C@H]2C[C@](C)(O)C2)CC3)c2scc(C(=O)O)c2n1` (single isomer, unassigned) [Compound 211], the IC50 is > 20 µM in assay [1] (Homo sapiens, COLO 205, 72 h) and < 0.1 µM in assay [2].

In the case of `COc1cc(CN(C)C2CCc3nc(C)n(CCOc4ccc(Cl)cc4-c4cc(C)nc5c(C(=O)NS(C)(=O)=O)csc45)c(=O)c3C2)ccn1` (single isomer, unassigned) [Compound 220], the IC50 in assay [1] is < 5 µM; in assay [2], < 0.1 µM.

Consider `Cc1cc(-c2cc(Cl)ccc2OCCn2c(C)nc3c(c2=O)C[C@@H](N(C)[C@H]2CC[C@@](C)(O)CC2)CC3)c2scc(C(=O)O)c2n1` (single isomer, unassigned) [Compound 225], for which the IC50 in assay [1] (Homo sapiens, COLO 205, 72 h) is > 20 µM; in assay [2] it was < 0.1 µM.

Take `Cc1cc(-c2cc(Cl)ccc2OCCn2c(C)nc3c(c2=O)C[C@@H](N(C)[C@H]2CC[C@](C)(O)CC2)CC3)c2scc(C(=O)O)c2n1` (single isomer, unassigned) [Compound 226]: the IC50 was > 20 µM in assay [1] (Homo sapiens, COLO 205, 72 h) and < 0.1 µM in assay [2].

For `Cc1cc(-c2ccc(Cl)cc2OCCn2c(C)nc3c(c2=O)C[C@@H](N(C)[C@H]2C[C@@](C)(O)C2)CC3)c2scc(C(=O)O)c2n1` (single isomer, unassigned) [Compound 228], the IC50 was > 20 µM in assay [1] (Homo sapiens, COLO 205, 72 h) and < 0.1 µM in assay [2].

With `Cc1cc(-c2cc(Cl)c(=O)[nH]c2OCCn2c(C)nc3c(c2=O)CC(N(C)C2CC2)CC3)c2scc(C(=O)O)c2n1` (single isomer, unassigned) [Compound 233], the concentration for half-maximal inhibition (IC50) is > 20 µM in assay [1] (Homo sapiens, COLO 205, 72 h) and 0.5 to 5 µM in assay [2].

For the molecule `Cc1cc(-c2cc(Cl)c(=O)[nH]c2OCCn2c(C)nc3c(c2=O)CC(N(C)C2CC2)CC3)c2scc(C(=O)O)c2n1` (single isomer, unassigned) [Compound 234], the IC50 in assay [1] is > 20 µM; in assay [2], 0.5 to 5 µM.

Consider `Cc1cc(-c2cc(Cl)ccc2OCCn2c(C)nc3c(c2=O)CC(N(C)Cc2ccc(=O)[nH]c2)CC3)c2scc(C(=O)O)c2n1` (single isomer, unassigned) [Compound 236], for which the IC50 in assay [1] was > 20 µM; in assay [2], < 0.1 µM.
